Values of other authors in patent US20050059682A1, “Compositions and methods for treatment of cancer” (priority 2003, published 2005).

Legend:
[1] = system: HDAC; settings: in vitro or in vivo for SAHA, SBHA, CBHA
[2] = system: prostate cancer; settings: single-agent chemotherapy of prostate cancer
[3] = system: mammalian HDAC

Row | Compound | efficacy as single agent [2] | also measured
1 | C/C=C1\NC(=O)[C@H]2CSSCC/C=C/[C@H](CC(=O)N[C@H](C(C)C)C(=O)N2)OC(=O)[C@H](C(C)C)NC1=O [FR901228] |  | concentration at which HDAC is inhibited [1]: micromolar concentrations
2 | C[C@]12CC[C@@H]3c4ccc(OC(=O)N(CCCl)CCCl)cc4CC[C@H]3[C@@H]1CC[C@@H]2O [estramustine] | minimal efficacy | 
3 | O=c1[nH]cc(F)c(=O)[nH]1 [5-fluorouracil] | minimal efficacy | 
4 | O=C1c2c(O)ccc(O)c2C(=O)c2c(NCCNCCO)ccc(NCCNCCO)c21 [mitoxantrone] | minimal efficacy | 
5 | COc1cccc2c1C(=O)c1c(O)c3c(c(O)c1C2=O)C[C@@](O)(C(=O)CO)C[C@@H]3O[C@H]1C[C@H](N)[C@H](O)[C@H](C)O1 [doxorubicin] | minimal efficacy | 
6 | depudecin |  | concentration at which HDAC is inhibited [1]: micromolar concentrations
7 | CC(/C=C/C(=O)NO)=C\[C@@H](C)C(=O)c1ccc(N(C)C)cc1 [TSA, trichostatin A] |  | inhibition of mammalian HDAC [3]: potent inhibitor
8 | O=P1(N(CCCl)CCCl)NCCCO1 (stereo not shown) [cyclophosphamide] | minimal efficacy | 
9 | O=C(/C=C/c1cccc(C(=O)NO)c1)NO [CBHA, m-carboxy-cinnamic acid bishydroxamic acid] |  | concentration at which HDAC is inhibited [1]: micromolar concentration or lower
10 | N.N.[Cl][Pt][Cl] [cisplatin] | minimal efficacy | 
11 | Nc1ncn([C@H]2C[C@H](O)[C@@H](CO)O2)c(=O)n1 [decitabine, 5-aza-2′-deoxycytidine] |  | half life in vivo: short half life; tissue distribution (in vivo): excellent tissue distribution
12 | CN(Cc1cnc2nc(N)nc(N)c2n1)c1ccc(C(=O)N[C@@H](CCC(=O)O)C(=O)O)cc1 [methotrexate] | minimal efficacy | 
